Source: patent publication US20260248918A1, “COMPOSITIONS AND METHODS OF SUPPRESSING AVERSIVENESS OF PHARMACEUTICALS AND INGESTIBLE MATERIALS” (Monell Chemical Senses Center, priority 2019, published 2026)
Where a name gives a salt, the structure may show the parent alone. Each block holds one compound with its values, some of them ahead of it.

Assays:
[1] = target: T1, TAS2R14 (Homo sapiens, UniProt Q9NYV8); test: Response profile of TAS2Rs to target compounds: TAS2R14; type: cell-based; conditions: FIG. 4: Praziquantel 0.75 mM, L-praziquantel 0.1 mM, Dihydroartemisinin 2 mM (not fully dissolved), Piperaquine 0.5 mM, TAF 1 mM, Ritonavir 1 mM, Zinc sulfate 20 mM
T1 sequence (Q9NYV8 1-317): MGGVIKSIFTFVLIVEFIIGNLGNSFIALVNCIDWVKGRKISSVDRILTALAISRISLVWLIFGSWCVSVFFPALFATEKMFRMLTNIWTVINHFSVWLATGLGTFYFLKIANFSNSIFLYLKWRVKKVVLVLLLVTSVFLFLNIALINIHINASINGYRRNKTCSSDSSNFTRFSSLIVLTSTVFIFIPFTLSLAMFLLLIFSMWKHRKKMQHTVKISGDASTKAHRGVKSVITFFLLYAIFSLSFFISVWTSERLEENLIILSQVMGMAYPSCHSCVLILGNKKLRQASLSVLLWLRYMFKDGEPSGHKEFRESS
Experimental: (§1) FIG. 4 is a table showing response profiles of TAS2Rs to indicated target compounds at indicated concentrations. Praziquantel: 0.75 mM, L-praziquantel: 0.1 mM, Zinc sulfate: 20 mM, Dihydroartemisinin: 2 mM (not fully dissolved), Piperaquine, 0.5 mM, Tenofovir (TAF), 1 mM and Ritonavir, 1 mM. Symbols: + means that there was activation; a − negative sign means that there was no significant activation of the receptor; a “larger + sign” means that receptor(s) were most sensitive to the compound (activated at lower concentrations.
(§2) Using a primary hTBEC platform, a high throughput screening (HTS) was conducted with more than 2,000 small molecular weight purified phytochemicals and botanical extracts. The screen identified 40 antagonists that suppressed taste cell activation by target APIs. […] TAS2R1 is responsive to piperaquine and tenofovir. (See FIG. 4)

[2] = target: T2, TAS2R39 (Homo sapiens, UniProt P59534); conditions: reported in Roland et al. 2014, data not shown; cited from earlier work
T2 sequence (P59534 1-338): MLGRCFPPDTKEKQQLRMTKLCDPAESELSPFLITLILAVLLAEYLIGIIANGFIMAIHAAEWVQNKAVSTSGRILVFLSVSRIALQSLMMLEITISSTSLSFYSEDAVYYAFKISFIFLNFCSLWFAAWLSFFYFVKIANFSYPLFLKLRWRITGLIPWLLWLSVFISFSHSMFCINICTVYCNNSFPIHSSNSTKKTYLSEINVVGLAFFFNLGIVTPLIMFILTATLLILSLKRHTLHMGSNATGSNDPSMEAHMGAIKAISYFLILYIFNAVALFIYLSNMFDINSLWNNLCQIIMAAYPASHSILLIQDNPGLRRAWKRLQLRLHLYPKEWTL

[3] = target: T2, TAS2R39; test: Response profile of TAS2Rs to target compounds: TAS2R39; type: cell-based; design: expressed in transfected cells; host or cells: HEK; conditions: FIG. 4: Piperaquine 0.5 mM, Tenofovir (TAF) 1 mM, Dihydroartemisinin 2 mM (not fully dissolved)
Experimental: as §1, §2

[4] = target: T3, TAS2R1 (Homo sapiens, UniProt Q9NYW7); test: Response profile of TAS2Rs to target compounds: TAS2R1; type: cell-based; conditions: FIG. 4: Piperaquine 0.5 mM, Tenofovir (TAF) 1 mM
T3 sequence (Q9NYW7 1-299): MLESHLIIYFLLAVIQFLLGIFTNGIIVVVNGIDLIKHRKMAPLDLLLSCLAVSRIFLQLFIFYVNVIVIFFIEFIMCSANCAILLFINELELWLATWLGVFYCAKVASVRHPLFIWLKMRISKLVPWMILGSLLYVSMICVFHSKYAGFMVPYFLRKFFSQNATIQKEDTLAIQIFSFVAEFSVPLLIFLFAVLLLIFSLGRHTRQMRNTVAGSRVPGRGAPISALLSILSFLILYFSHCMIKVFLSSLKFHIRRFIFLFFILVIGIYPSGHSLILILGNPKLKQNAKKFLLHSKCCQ
Experimental: as §1, §2

[5] = test system: human subjects; test: Human sensory testing (gLMS) of API bitterness with blocker, as pre-rinse or admixture; type: in vivo; conditions: added as sensory excipients to APIs
Description: Methods of evaluating the sensory properties of the API and admixtures with the blocker compounds of Formula A are adopted from Breslin PA, and Tharp CD, “Reduction of saltiness and bitterness after a chlorhexidine rinse,” Chem Senses. 2001 February; 26(2):105-16. More details are illustrated below.
Subjects participate in the study after providing informed consent. Gender of the subjects is balanced between male and female. The subjects are adults with ages ranging from 20 years old to 50 years old. […] The participants are asked to refrain from eating, drinking, or chewing gum for 1 hr prior to testing. Subjects are trained to use the General Labeled Magnitude Scale (gLMS) following standard published procedures. See. e.g., Breslin P A, and Tharp C D. “Reduction of saltiness and bitterness after a chlorhexidine rinse,” Chem Senses. 2001 February; 26(2): 105-16; Keast and Breslin, “Bitterness suppression with zinc sulfate and Na-cyclamate: a model of combined peripheral and central neural approaches to flavor modification.” Pharm Res. 2005 November; 22(11):1970-7. Epub 2005 Aug. 26; Green et al, “Evaluating the ‘Labeled Magnitude Scale’ for measuring sensations of taste and smell.” Chem Senses. 1996 June; 21(3):323-34; Barry G. Green, et al, “Derivation and evaluation of a semantic scale of oral sensation magnitude with apparent ratio properties,” Chemical Senses, Volume 18, Issue 6, 1 Dec. 1993, Pages 683-702; and Bartoshuk L M, “Comparing sensory experiences across individuals: recent psychophysical advances illuminate genetic variation in taste perception.” Chem Senses. 2000 August; 25(4):447-60.
The selected API (in racemic or L form as applicable) is diluted/dissolved in deionized (di) filtered water upon use into various concentrations. […] The API is prepared and dissolved in deionized filtered water or in […] 6-methylflavone to a final concentration. All solutions are stored on ice or at 4° C. to 8° C. and brought up to room temperature prior to testing.
The following testing protocol is performed. The tested solutions are provided to the subjects in random order. Subjects rinsed with di water at least four times over a 2-minute period prior to tasting each solution. The subjects are instructed to wear nose clips to eliminate olfactory input, pour the whole solution in their mouth for 3-5 seconds, and rate the perceived sensation (including bitterness, sourness, astringency, burning, stinging and nausea) intensity of the solution while it remained in the mouth, prior to expectorating. Taste intensity is recorded on a computerized gLMS, analyzed and plotted.

- Activation of TAS2R14 [1]: one of most responsive receptors
Compound: O=C(C1CCCCC1)N1CC(=O)N2CCc3ccccc3[C@@H]2C1 [L-praziquantel]

- Activation of TAS2R14 [1]: one of most responsive receptors
Compound: CC(C)c1nc(CN(C)C(=O)N[C@H](C(=O)N[C@@H](Cc2ccccc2)C[C@H](O)[C@H](Cc2ccccc2)NC(=O)OCc2cncs2)C(C)C)cs1 [Ritonavir]

Continued, compound first:

Compound: O=C(C1CCCCC1)N1CC(=O)N2CCc3ccccc3C2C1 (racemic) [Praziquantel]
- Activation of TAS2R14 [1]: one of most responsive receptors

Compound: COc1ccc2oc(-c3ccccc3)cc(=O)c2c1 [6-methoxyflavone]
- Inhibition of hTAS2R39 activation [2]: unable to inhibit

Compound: Clc1ccc2c(N3CCN(CCCN4CCN(c5ccnc6cc(Cl)ccc56)CC4)CC3)ccnc2c1 [Piperaquine]
- Activation of TAS2R39 [3]: one of the most responsive receptors
- Activation of TAS2R1 [4]: responsive

Compound: CC(C)OC(=O)[C@H](C)N[P@](=O)(CO[C@H](C)Cn1cnc2c(N)ncnc21)Oc1ccccc1 [TAF, tenofovir alafenamide fumarate]
- Activation of TAS2R39 [3]: one of the most responsive receptors
- Activation of TAS2R1 [4]: responsive

Compound: sodium
- Reduction of API bitterness by sensory excipients [5]: significantly reduce

Compound: zinc
- Reduction of API bitterness by sensory excipients [5]: significantly reduce
